Assay results from paper PMC10714400, “Antimicrobial Peptide–Peptoid Hybrids with and without Membrane Disruption” (ACS Infectious Diseases, 2023).
Converted amounts (≈) assume the structure as drawn. Read-outs that look alike come from different tables or passages of the source. Where a SMILES comes first, the peptide text is derived from it. [ ]: non-standard residue; d: D form. Nleu = CC(C)CNCC(=O)O; Nlys = NCCCCNCC(=O)O

Assays:
A549 cells = assay: Cell viability assay by Alamar blue; format: cell-based; details: CSV; read-out: Toxicity on A549 lung cancern cells
Method: The data are represented as the mean value ± SD, n = 3. […] (c) Vesicle leakage assay for a selection of compounds. Lipid vesicles made of EYPG or EYPC were suspended in a buffer (10 mM TRIS, 107 mM NaCl, pH 7.4). After 45 s, the indicated compound was added to reach the desired concentration. After 240 s, 30 μL of 1.2% TritonX-100 was added for full fluorescein release. […] See Supporting Information for the full curves, all of the data, and procedures.
HEK293 cells were cultured and maintained in DMEM high glucose (Dulbecco’s modified Eagle medium, Sigma Aldrich) medium supplemented with 10% FBS (Sigma Aldrich) and 1% penicillin/streptomycin. A549 cells were cultured and maintained in RPMI-1640 medium (Sigma Aldrich), supplemented with 10% FBS (Sigma Aldrich) and 1% penicillin/streptomycin. The cells were handled and subcultured according to the manufacturer instructions. Cells were incubated in a humidified incubator at 37 °C in the presence of 5% CO2.
Assays on HEK293, A549 cells were performed as described earlier.[74] […]

[1] = tested on: human red blood cells (hRBC); assay: Minimum hemolytic concentration (MHC); format: cell-based; details: for MHC (hemolysis): red cells of human
Excerpt: We also measured minimal hemolysis concentrations (MHC) on human red blood cells by serial 2-fold dilution as an indication of toxicity against eukaryotic cells (Table 1).

S. maltophilia = tested on: S. maltophilia
Summary of the method: (§1)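 MIC read visually after MTT staining: lowest compound concentration preventing visible growth (yellow wells). Inoculum ~5 × 10^5 CFU per well in MH broth; static incubation at 37 °C for ca. 18 h.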

B. cenocepacia = tested on: B. cenocepacia
Summary of the method: as §1

S. epidermis = tested on: S. epidermis
Summary of the method: as §1

S. aureus Newman = tested on: S. aureus Newman
Summary of the method: as §1

P. aeruginosa PA14 = tested on: P. aeruginosa PA14
Summary of the method: as §1

P. aeruginosa PAO1 = assay: NPN outer membrane permeability assay; format: cell-based, Pseudomonas aeruginosa
Method: Figure 5 Interactions of peptide–peptoid hybrids with bacterial outer and inner membranes of P. aeruginosa. (a, b) NPN outer membrane permeability assay. P. aeruginosa PAO1 bacteria were treated with increasing compound concentrations in the presence of 10 μM NPN. The fluorescence intensity (λex = 340 nm, λem = 415 nm) was measured within 5 min. Data represent the mean ± SD, n = 3. (c, d) DiSC3(5) inner membrane depolarization assay. P. aeruginosa PAO1 cells were treated with increasing compound concentrations in the presence of 2 μM DiSC3(5). The fluorescence intensity (λex = 610 nm, λem = 660 nm) was measured within 5 min after treatment, and the data represent mean ± SD, n = 3.
A single colony of P. aeruginosa PAO1 and E. coli W3110 was grown overnight while being shaken (150 rpm) in LB-broth (5 mL) at 37 °C. 100 μL of the overnight culture was regrown in 10 mL of LB broth with shaking (200 rpm) to the exponential phase (OD600 = 1, corresponding to 10^9 CFU/mL). Bacteria were washed three times with HEPES buffer (5 mM HEPES, 5 mM glucose, pH 7.4), but not diluted yet to their final concentration. 200 μL of peptide samples was added to the first well of 96-well plates (black wells, flat bottom, BRAND GmbH Wertheim, Germany), 100 μL of HEPES/glucose buffer with 10 μM N-phenyl-1-naphthylamine (NPN, purchased from Acros Organics) was added in all the wells, and the compounds were diluted serially by 1/2 (add a control with a final volume of 200 μL with 10 μM NPN in buffer only). Ca. 10 min before the measurement and the final dilution of the bacteria, the plates and the 10 μM NPN in HEPES/glucose buffer (for bacteria dilution) were incubated at 37 °C (prior to the dilution of the bacteria with buffer containing NPN 10 μM). Later, the bacteria were diluted to OD600 = 0.5 with the NPN in HEPES/glucose buffer. 100 μL of the bacterial suspension was added to each well. In this case, the final OD of bacteria was 0.25, the final concentration of the desired compound 64 μg/mL, and NPN 10 μM. The control wells are buffer containing NPN (10 μM, 200 μL) and bacterial suspension containing NPN in HEPES buffer. The plate was measured with a Tecan instrument Infinite M1000 within 5 min. The plate was enabled to shake for 5 s before measurement. The excitation wavelength used was 340 ± 5 nm, and emission wavelength was 415 ± 5 nm. The assay was repeated at least three times.

[2] = Table S3, […] MH at pH 8.5, 16-20 hours at 37 °C
[3] = diluted MH ([…] MH) at pH 8.5 (Table 2 footnote b)

Structure (SMILES) | IC50 (A549 cells) [µM] | MHC [1] [µg/mL] | MHC (hemolysis) [1] [µg/mL] | MIC S. maltophilia, full MH at pH 7.4 (S. maltophilia; 4 h, pH 7.4) [ug/mL] | MIC S. maltophilia (S. maltophilia; pH 7.4) [µg/mL] | MIC B. cenocepacia, full MH at pH 7.4 (B. cenocepacia; 4 h, pH 7.4) [ug/mL] | MIC B. cenocepacia (B. cenocepacia; pH 7.4) [µg/mL] | MIC S. epidermis, full MH at pH 7.4 (S. epidermis; 4 h, pH 7.4) [ug/mL] | MIC S. epidermis (S. epidermis; pH 7.4) [µg/mL] | MIC S. aureus Newman, full MH at pH 7.4 (S. aureus Newman; Newman, 4 h, pH 7.4) [ug/mL] | MIC S. aureus Newman (S. aureus Newman; Newman, 4 h, pH 8.5) [µg/mL] | MIC S. aureus Newman (S. aureus Newman; Newman, pH 7.4) [µg/mL] | MIC P. aeruginosa PA14, full MH at pH 7.4 (P. aeruginosa PA14; PA14, 4 h, pH 7.4) [ug/mL] | MIC P. aeruginosa PA14 (P. aeruginosa PA14; PA14, pH 7.4) [µg/mL] | MIC P. aeruginosa PA14 (P. aeruginosa PA14; PA14, pH 8.5) [µg/mL] | Outer membrane permeabilization (NPN) (P. aeruginosa PAO1; not told) | MIC S. maltophilia (S. maltophilia; Table S3, […] MH at pH 8.5) [µg/mL] | MIC S. epidermis (S. epidermis; Table S3, […] MH at pH 8.5) [µg/mL] | MIC S. aureus Newman (S. aureus Newman; Table S3, […] MH at pH 8.5) [µg/mL] | MIC P. aeruginosa PA14 (P. aeruginosa PA14; [2]) [µg/mL] | other results
CC(C)C[C@H](NC(=O)[C@H](CCCCN)NC(=O)CNCCCCN)C(=O)N[C@@H](CC(C)C)C(=O)N[C@@H](CCCCN)C(=O)N[C@@H](CC(C)C)C(=O)N[C@@H](CC(C)C)C(=O)N[C@@H](CCCCN)C(=O)N[C@@H](CC(C)C)C(=O)N[C@@H](CC(C)C)C(=O)N(CC(N)=O)CC(C)C [EB1] (H-[Nlys]KLLKLLKLL[Nleu]-NH2; N-terminus assumed) | 69 ± 2 | 1000 | 250 to 1000 | 3 | 2 to 4 | >32 | >32 | 6 | 4 to 8 | 32 | 2 (≈ 1.51 µM) | 32 (≈ 24.2 µM) | 4 | 4 (≈ 3.03 µM) | 2 (≈ 1.51 µM) |  |  |  |  |  | 
CC(C)C[C@H](NC(=O)[C@H](CC(C)C)NC(=O)[C@H](CC(C)C)NC(=O)[C@H](CCCCN)NC(=O)[C@H](CC(C)C)NC(=O)[C@H](CC(C)C)NC(=O)CN(CCCCN)C(=O)CN(CC(C)C)C(=O)CN(CC(C)C)C(=O)CN(CCCCN)C(=O)CNCCCCN)C(N)=O [EB5, kkllkLLKLLL] (H-[Nlys][Nlys][Nleu][Nleu][Nlys]LLKLLL-NH2) |  | 1000 | 250 to 1000 | 8 | 8 (≈ 6.05 µM) | >32 | >32 | 6 | 4 to 8 | >32 | 2 (≈ 1.51 µM) | >32 | 6 | 4 to 8 | 2 (≈ 1.51 µM) | permeabilized the outer membrane |  |  |  |  | MIC S. maltophilia (S. maltophilia; 4 h, pH 8.5): 4 to 8 µg/mL; MIC S. epidermis (S. epidermis; 4 h, pH 8.5): 2 µg/mL (≈ 1.51 µM)
CC(C)C[C@H](NC(=O)CN(CC(C)C)C(=O)[C@H](CC(C)C)NC(=O)CN(CCCCN)C(=O)[C@H](CC(C)C)NC(=O)CN(CC(C)C)C(=O)[C@H](CCCCN)NC(=O)CN(CC(C)C)C(=O)[C@H](CC(C)C)NC(=O)CN(CCCCN)C(=O)[C@@H](N)CCCCN)C(N)=O [EB9, KkLlKlLkLlL] (H-K[Nlys]L[Nleu]K[Nleu]L[Nlys]L[Nleu]L-NH2) |  | >2000 |  |  |  |  |  |  |  |  |  |  |  |  |  | significant outer membrane permeabilization | 8 (≈ 6.05 µM) | 2 (≈ 1.51 µM) | 4 (≈ 3.03 µM) | 2 (≈ 1.51 µM) | Hemolysis [1]: none of them showed any measurable hemolysis; MIC B. cenocepacia (B. cenocepacia; 4 h, pH 8.5): >32 µg/mL
CC(C)CN(CC(N)=O)C(=O)CN(CC(C)C)C(=O)CN(CC(C)C)C(=O)CN(CCCCN)C(=O)CN(CC(C)C)C(=O)CN(CC(C)C)C(=O)CN(CCCCN)C(=O)CN(CC(C)C)C(=O)CN(CC(C)C)C(=O)CN(CCCCN)C(=O)CNCCCCN [EB11, kkllkllklll] (H-[Nlys][Nlys][Nleu][Nleu][Nlys][Nleu][Nleu][Nlys][Nleu][Nleu][Nleu]-NH2) |  |  |  |  |  |  |  |  |  |  |  |  |  |  |  |  | 4 (≈ 3.03 µM) | 1 (≈ 0.757 µM) | 4 (≈ 3.03 µM) | 2 to 4 | Outer membrane permeabilization (NPN) (P. aeruginosa PAO1; P. aeruginosa PAO1, 10 μM NPN): significant outer membrane permeabilization; MHC ([1]; CSV): >2000 µg/mL; MHC ([1]; Table S2, hRBC, 10 mM phosphate buffer, 150 mM NaCl, pH 7.4, 25 °C, 4 h): > 2000 µg/mL; MHC ([1]; hRBC, 10 mM phosphate buffer, 150 mM NaCl, pH 7.4, 25 °C, 4 h): >2000 µg/mL; Hemolysis ([1]; human red blood cells): none of them showed any measurable hemolysis; MIC S. maltophilia, […] MH at pH 8.5 (S. maltophilia; CSV, […] MH at pH 8.5): 4 ug/mL; MIC B. cenocepacia (B. cenocepacia; [3]): >32 µg/mL; MIC S. epidermis, […] MH at pH 8.5 (S. epidermis; CSV, […] MH at pH 8.5): 1 ug/mL; MIC S. aureus Newman, […] MH at pH 8.5 (S. aureus Newman; CSV, […] MH at pH 8.5): 4 ug/mL; MIC P. aeruginosa PA14, […] MH at pH 8.5 (P. aeruginosa PA14; CSV): 3 ug/mL; MIC P. aeruginosa PA14 (P. aeruginosa PA14; [3]): 2 to 4 µg/mL
CC(C)C[C@H](NC(=O)[C@H](CC(C)C)NC(=O)[C@H](CC(C)C)NC(=O)[C@@H](CCCCN)NC(=O)[C@H](CC(C)C)NC(=O)[C@H](CC(C)C)NC(=O)[C@@H](CCCCN)NC(=O)[C@H](CC(C)C)NC(=O)[C@H](CC(C)C)NC(=O)[C@@H](CCCCN)NC(=O)[C@H](N)CCCCN)C(N)=O [ln69, kkLLkLLkLLL, reference compound] (H-[dK][dK]LL[dK]LL[dK]LLL-NH2) | 21 ± 3 | 1000 |  |  |  |  |  |  |  |  |  |  |  |  |  |  | 2 (≈ 1.51 µM) | 1 (≈ 0.757 µM) | 2 to 4 | 2 to 4 | MIC S. maltophilia, […] MH at pH 8.5 (S. maltophilia; CSV, […] MH at pH 8.5): 2 ug/mL; MIC S. maltophilia, full MH at pH 7.4 (S. maltophilia; CSV, full MH at pH 7.4): 2 ug/mL; MIC S. maltophilia (S. maltophilia; MH pH 7.4, 16–20 h at 37 °C): 2 µg/mL (≈ 1.51 µM); MIC B. cenocepacia, full MH at pH 7.4 (B. cenocepacia; CSV, full MH at pH 7.4): >32 ug/mL; MIC B. cenocepacia (B. cenocepacia; MH pH 7.4, 16–20 h at 37 °C): >32 µg/mL; MIC S. epidermis, […] MH at pH 8.5 (S. epidermis; CSV, […] MH at pH 8.5): 1 ug/mL; MIC S. epidermis, full MH at pH 7.4 (S. epidermis; CSV, full MH at pH 7.4): 3 ug/mL; MIC S. epidermis (S. epidermis; MH pH 7.4, 16–20 h at 37 °C): 2 to 4 µg/mL; MIC S. aureus Newman, […] MH at pH 8.5 (S. aureus Newman; CSV, […] MH at pH 8.5): 3 ug/mL; MIC S. aureus Newman, full MH at pH 7.4 (S. aureus Newman; CSV, full MH at pH 7.4): 8 ug/mL; MIC S. aureus Newman (S. aureus Newman; MH pH 7.4, 16–20 h at 37 °C): 8 µg/mL (≈ 6.05 µM); MIC P. aeruginosa PA14, […] MH at pH 8.5 (P. aeruginosa PA14; CSV): 3 ug/mL; MIC P. aeruginosa PA14, full MH at pH 7.4 (P. aeruginosa PA14; CSV, full MH at pH 7.4): 2 ug/mL; MIC P. aeruginosa PA14 (P. aeruginosa PA14; MH pH 7.4, 16–20 h at 37 °C): 2 µg/mL (≈ 1.51 µM)
